In patent US11890268B2, “Dibenzothiophene derivatives and methods of treating cancer therewith” (Saint Louis University, priority 2018, dated 2024):

Assays:
[1] = tested on: MDA-MB-231 breast cancer cells; assay: MTS cell viability assay with UV-A irradiation; format: cell-based
Experimental: (§1) MDA-MB-231 breast cancer cells were plated at 10,000 cells/well on three 96 well plates. After 24 hours incubation at 37° C., varying concentrations of MA-3 and MA-4 were added and incubated for 1 hour at 37° C. on only two plates (pre-UV and no UV exposure). One plate with cells were then left at room temperature covered for 30 min (no UV). The second plate (pre-UV) and the third plate (post-UV) were exposed to UV-A in a Luzchem photoreactor with 8 LZC-UVA lamps for 30 min. Varying concentrations of MA-3 and MA-4 were added to post UV exposure plate after irradiation. Plates were then incubated for 24 hours at 37° C. and then a MTS cell viability assay (Promega) was performed. Cell viability assay was run on a Flexstation3 mulitmode plate reader and percent viability was calculated. Statistical analyses were performed using GraphPad Prism program.

[2] = Deoxygenation of sulfoxide to sulfide on UV-A exposure in plate well, HPLC; format: physicochemical; settings: for Sulfide (MA-4) Concentration: addition of drug pre-UV exposure, n = 4; for Sulfide Concentration 30 Minutes After UV Exposure: Table 3
Experimental: as §1
The concentrations were determined using HPLC injections on Agilent Technologies 1200 series HPLC—quaternary pump. The experiment was carried out in two trials consisting of duplicate studies.

**Q.** Which “% cell viability” value ([1]; any of the UV-exposure conditions (no UV, pre-UV, post-UV)) does the source give for `CC(=O)OCc1ccc2sc3ccc(COC(C)=O)cc3c2c1` [MA-4] here?
**A.** Its value is “did not decrease % cell viability”.

**Q.** Which “% cell viability” value ([1]; compound added pre-UV exposure, cells irradiated with UV-A) does the source give for `CC(=O)OCc1ccc2c(c1)c1cc(COC(C)=O)ccc1[s+]2[O-]` [MA-3, 5-oxo-2,8-diacetoxymethyldibenzothiophene] here?
**A.** Its value is “decreases % cell viability”.

**Q.** And the “% cell viability” value ([1]; compound added pre-UV exposure, cells irradiated with UV-A, listed as 5-oxo-2,8-diacetoxymethyldibenzothiophene)?
**A.** The value was “a decrease in % cell viability”.

**Q.** And the “Sulfide (MA-4) Concentration” value ([2]; Concentration of MA-3 10 μM)?
**A.** The value was 9.653 ± 0.170 µM.

**Q.** What about the “Sulfide (MA-4) Concentration” value ([2]; Concentration of MA-3 100 μM) of the same compound?
**A.** Its value is 90.02 ± 4.87 µM.

**Q.** And the “Sulfide Concentration 30 Minutes After UV Exposure” value ([2]; starting concentration 100 μM)?
**A.** The value was 90 ± 3 µM.

**Q.** For `O=S(=O)(Oc1ccccc1)c1ccc2c(c1)c1cc(-c3ccc(-c4ccccc4)cc3)ccc1[s+]2[O-]` (stereo not shown) [Compound 5a], which “Sulfide Concentration 30 Minutes After UV Exposure” value ([2]; starting concentration 10 μM) is on record?
**A.** The value was 3.3 ± 1.4 µM.
